Measurements: patent publication US11572402B2, “Method for promoting diversification of antibody variable region” (Chiome Bioscience Inc., priority 2017, dated 2023)

Tests used:
hVEGF-A-#33 cell line = assay: Affinity Maturation and FCM, cells in Affinity Maturation Gate; format: cell-based, chicken; conditions: A66 10 μM, PI3Kα Inhibitor 2 500 nM, Day 7, versus conditions without drug
Description: (§1) Frozen stocks of the hVEGF-A #33 cell line and the hVEGF-A #44 cell line (3.0×10^6 cells) were each awaken with a CS(−) medium, using a 25 cm^2 Flask (Corning, 430639), and were then cultured in a CO2 incubator (SANYO CO2 Incubator MCO-20AIC, 39.5° C., 5% CO2). On the following day, the cells were seeded on a 6-well dish (Nunc, 140675) to a cell density of 1.0×10^4 cells/mL (wherein the cell concentration and the survival rate were measured using CASY cell counter (Nepa Gene)). The cells were cultured in a CS(+) medium, in the presence or absence of a PI3Kα inhibitor (A66: 10 μM, PI3Kα Inhibitor 2: 500 nM). Moreover, after the cells had been cultured for 2 days, individual samples were subcultured under the same conditions to result in a cell density of 1.0×10^4 cells/mL. […] A plot, in which the vertical axis indicated AF647 (AF647-labeled hVEGF-A) and the longitudinal axis indicated PE (Goat Anti-Human IgG-PE), was developed, and the percentage of PE+(hIgG+)/[…] cells was then calculated. […] The percentage of clones with improved antigen-binding ability was calculated by counting the number of cells existing in this Affinity Maturation Gate and then dividing the obtained value by the total number of the analyzed cells. […]

hVEGF-A-#44 cell line = assay: as above; format: cell-based, chicken; conditions: A66 10 μM, PI3Kα Inhibitor 2 500 nM, Day 7, versus conditions without drug
Description: as §1

Cc1nc(NC(=O)N2CCC[C@H]2C(N)=O)sc1-c1csc(C(C)(C)C)n1 [A66]
percentage of the cells with improved antigen-binding ability (Affinity Maturation Gate, 5 or more times increased in MFI) (hVEGF-A-#33 cell line): increased
percentage of the cells with improved antigen-binding ability (Affinity Maturation Gate, 5 or more times increased in MFI) (hVEGF-A-#44 cell line): increased
